According to patent US7704992B2, “Hepatitis C virus inhibitors” (Bristol-Myers Squibb Company, priority 2008, dated 2010):
Like-named read-outs stand apart in the source and are kept apart here.

Tested on: HCV 1b-377-neo replicon cells
Assay: HCV Replicon assay, HCV 1b genotype
Format: cell-based
Conditions: Hepatitis C virus
Method: An HCV Replicon assay was utilized in the present disclosure, and was prepared, conducted and validated as described in commonly owned PCT/US2006/022197 and in O'Boyle et. al. Antimicrob Agents Chemother. 2005 April; 49(4): 1346-53.
HCV 1b-377-neo replicon cells were used to test the currently described compound series as well as cells resistant to compound A containing a Y2065H mutation in NS5A (described in application PCT/US2006/022197). The compounds tested were determined to have more than 10-fold less inhibitory activity on cells containing the mutation than wild-type cells indicating a related mechanism of action between the two compound series. Thus, the compounds of the present disclosure can be effective to inhibit the function of the HCV NS5A protein and are understood to be as effective in combinations as previously described in application PCT/US2006/022197 and commonly owned WO/04014852. Further, the compounds of the present disclosure can be effective against the HCV 1b genotype. It should also be understood that the compounds of the present disclosure can inhibit multiple genotypes of HCV. […] In one embodiment compounds of the present disclosure are active against the 1a, 1b, 2a, 2b, 3a, 4a, and 5a genotypes.

[1] = class symbol, read-out: EC50 range against HCV 1b

COCC[C@H](NC(=O)OC)C(=O)N1CCC[C@H]1c1ncc(-c2ccc3c(c2)[nH]c2cc(-c4cnc([C@@H]5CCCN5C(=O)[C@H](CCOC)NC(=O)OC)[nH]4)ccc23)[nH]1 [Example 31, methyl ((1S)-3-methoxy-1-(((2S)-2-(5-(7-(2-((2S)-1-(N-(methoxycarbonyl)-O-methyl-L-homoseryl)-2-pyrrolidinyl)-1H-imidazol-5-yl)-9H-carbazol-2-yl)-1H-imidazol-2-yl)-1-pyrrolidinyl)carbonyl)propyl) carbamate]
EC50 [1]: 1000 to 99000 pM

COC(=O)N[C@H](C(=O)N1CCC[C@H]1c1ncc(-c2ccc3c(c2)[nH]c2cc(-c4cnc([C@@H]5CCCN5C(=O)[C@@H](NC(=O)OC)C(C)C)[nH]4)ccc23)[nH]1)C(C)C [Example 32]
EC50 [1]: 101 to 999 pM

COCCn1c2cc(-c3cnc([C@@H]4CCCN4C(=O)[C@@H](NC(=O)OC)C(C)C)[nH]3)ccc2c2ccc(-c3cnc([C@@H]4CCCN4C(=O)[C@@H](NC(=O)OC)C(C)C)[nH]3)cc21 [Example 33, methyl ((1S)-1-(((2S)-2-(5-(7-(2-((2S)-1-((2S)-2-((methoxycarbonyl)amino)-3-methylbutanoyl)-2-pyrrolidinyl)-1H-imidazol-5-yl)-9-(2-methoxyethyl)-9H-carbazol-2-yl)-1H-imidazol-2-yl)-1-pyrrolidinyl)carbonyl)-2-methylpropyl)carbamate]
EC50 [1]: 1 to 100 pM

COCCn1c2cc(-c3cnc([C@@H]4CCCN4C(=O)[C@H](C)NC(=O)OC)[nH]3)ccc2c2ccc(-c3cnc([C@@H]4CCCN4C(=O)[C@H](C)NC(=O)OC)[nH]3)cc21 [Example 34, methyl ((1S)-2-((2S)-2-(5-(7-(2-((2S)-1-(N-(methoxycarbonyl)-L-alanyl)-2-pyrrolidinyl)-1H-imidazol-5-yl)-9-(2-methoxyethyl)-9H-carbazol-2-yl)-1H-imidazol-2-yl)-1-pyrrolidinyl)-1-methyl-2-oxoethyl)carbamate]
EC50 [1]: 1000 to 99000 pM

COCCn1c2cc(-c3cnc([C@@H]4CCCN4C(=O)[C@@H](NC(=O)OC)[C@@H](C)OC)[nH]3)ccc2c2ccc(-c3cnc([C@@H]4CCCN4C(=O)[C@@H](NC(=O)OC)[C@@H](C)OC)[nH]3)cc21 [Example 35, methyl ((1S,2R)-2-methoxy-1-(((2S)-2-(5-(7-(2-((2S)-1-(N-(methoxycarbonyl)-O-methyl-L-threonyl)-2-pyrrolidinyl)-1H-imidazol-5-yl)-9-(2-methoxyethyl)-9H-carbazol-2-yl)-1H-imidazol-2-yl)-1-pyrrolidinyl)carbonyl)propyl)carbamate]
EC50 (value in pM, read-out: EC50 value against HCV 1b): 662 pM
